Assay results: US20190133128A1, “Fungicidal pyridazinones” (FMC Corporation, priority 2017, published 2019)
Marks after values point to notes of the source that are not given here.

Tests used:
Format in all cases: in vivo
Phytophthora infestans = test: whole plant or invertebrate; details: tomato seedlings
[1] = tested on: Erysiphe graminis f. sp. tritici; test: Test G: preventive spray on wheat seedlings, wheat powdery mildew, visual disease rating
From the text: (§1) General protocol for preparing test solutions for Tests AG: the test compounds were first dissolved in acetone in an amount equal to 3% of the final volume and then suspended at the desired concentration (in ppm) in acetone and purified water (50/50 mix by volume) containing the surfactant PEG400 (polyhydric alcohol esters). The resulting test suspensions were then used in Tests AG. Compounds were sprayed at a concentration of 250 ppm or other indicated rate to the point of run-off on the test plants. The test solution was sprayed to the point of run-off on wheat seedlings. […] A dash (-) indicates no test results.

[2] = tested on: Puccinia recondita f. sp. tritici; test: Test F: preventive spray on wheat seedlings, wheat leaf rust, visual disease rating
From the text: as §1, with “seedlings. The following day the seedlings were inoculated with a spore suspension of Puccinia recondita f. sp. tritici;” for “seedlings.”

Botrytis cinerea = test: Test C: preventive spray on tomato seedlings, gray mold, visual disease rating
From the text: as §1, with “tomato” for “wheat”

Zymoseptoria tritici = test: Test E: preventive spray on wheat seedlings, wheat leaf blotch, visual disease rating
From the text: as §1

Phakopsora pachyrhizi = test: Test A: preventive spray on soybean seedlings, Asian soybean rust, visual disease rating; details: 250 ppm, 100 = 100% disease control, 0 = no control
[3] = 250 ppm, 100 = 100% disease control, 0 = no control

Row | Structure (SMILES) | Test D disease control rating (Phytophthora infestans; 200 ppm) | Test G disease control rating ([1]; 200 ppm) [%] | Test F disease control rating ([2]; 200 ppm) [%] | Test C disease control rating (Botrytis cinerea; 200 ppm) [%] | further results
1 | Cn1ncc(O)c(C(=O)Nc2ccc3c(c2)OC(F)(F)O3)c1=O [Compound 1] | 0% | 40 | 98 | 0 | 
2 | Cc1nn(C)c(=O)c(C(=O)Nc2ccc(OC(F)(F)F)cc2)c1O [Compound 3] | 0% | 37 | 0 | 0 | Test E disease control rating (Zymoseptoria tritici; 200 ppm): 0%
3 | CCCn1ncc(O)c(C(=O)Nc2ccc(OC(F)(F)F)cc2)c1=O [Compound 4] | 99% | 97 | 95 | 0 | Test E disease control rating (Zymoseptoria tritici; 200 ppm): 0%
4 | CCn1ncc(O)c(C(=O)Nc2ccc(OC(F)(F)F)cc2)c1=O [Compound 5] | 50% | 32 | 84 | 10 | Test E disease control rating (Zymoseptoria tritici; 200 ppm): 0%
5 | COc1cnn(C)c(=O)c1C(=O)Nc1ccc(Cl)cc1 [Compound 8] | 0% | 0 | 0 | 0 | 
6 | Cn1ncc(O)c(C(=O)Nc2ccc(Cl)cc2)c1=O [Compound 9] | 0% | 96 | 99 | 0 | 
7 | Cn1ncc(O)c(C(=O)Nc2ccccc2Cl)c1=O [Compound 10] | 0% | 0 | 97 | 99 | 
8 | Cn1ncc(O)c(C(=O)Nc2cccc(Cl)c2)c1=O [Compound 11] | 0% | 31 | 95 | 48 | 
9 | CCn1ncc(O)c(C(=O)Nc2ccc(Cl)nc2)c1=O [Compound 12] | 0% | 93 | 91 |  | 
10 | O=C(Nc1ccc(Cl)nc1)c1c(O)cnn(-c2ccccc2)c1=O [Compound 14] | 0% | 0 | 98 | 90 | 
11 | Cn1ncc(O)c(C(=O)Nc2cccc(C#N)c2)c1=O [Compound 15] | 79% | 0 | 91 | 16 | 
12 | Cc1cc(Cl)ccc1NC(=O)c1c(O)cnn(C)c1=O [Compound 16] | 91% | 45 | 99 | 0 | 
13 | Cn1ncc(O)c(C(=O)Nc2ccc(Cl)c(Cl)c2)c1=O [Compound 17] | 57% | 0 | 99 | 0 | 
14 | Cn1ncc(O)c(C(=O)Nc2ccc(Cl)c(C(F)(F)F)c2)c1=O [Compound 18] | 0% | 46 | 83 | 0 | 
15 | Cn1ncc(O)c(C(=O)Nc2cccc3cccnc23)c1=O [Compound 19] | 0% | 0 | 96 | 0 | 
16 | Cn1ncc(O)c(C(=O)Nc2c(F)cccc2F)c1=O [Compound 20] | 0% | 0 | 0 | 0 | 
17 | Cn1ncc(O)c(C(=O)NCc2ccc(Cl)cc2)c1=O [Compound 22] |  |  |  |  | Test D disease control rating (Phytophthora infestans; 40 ppm): 0%; Test G disease control rating ([1]; 40 ppm): 0%; Test F disease control rating ([2]; 40 ppm): 41%; Test C disease control rating (Botrytis cinerea; 40 ppm): 0%
18 | CN(C(=O)c1c(O)cnn(C)c1=O)c1ccc(Cl)cc1 [Compound 23] |  |  |  |  | Test D disease control rating (Phytophthora infestans; 40 ppm): 0%; Test G disease control rating ([1]; 40 ppm): 0%; Test F disease control rating ([2]; 40 ppm): 0%; Test C disease control rating (Botrytis cinerea; 40 ppm): 0%
19 | Cn1ncc(O)c(C(=O)Nc2ccc(Cl)cc2C#N)c1=O [Compound 24] | 0% | 0 | 91 | 99 | 
20 | Cn1ncc(O)c(C(=O)Nc2cccc(F)c2)c1=O [Compound 25] | 0* % | 0 | 89 | 0 | 
21 | Cn1ncc(O)c(C(=O)Nc2ccccc2-c2cc(F)c(F)c(F)c2)c1=O [Compound 27] |  |  |  |  | Test D disease control rating (Phytophthora infestans; [3]): 0%; Test G disease control rating [1, 3]: 0%; Test A disease control rating (Phakopsora pachyrhizi): 0%; Test E disease control rating (Zymoseptoria tritici; [3]): 0%; Test F disease control rating [2, 3]: 98%; Test C disease control rating (Botrytis cinerea; [3]): 0%
22 | Cn1ncc(O)c(C(=O)Nc2ccccc2-c2ccc(Cl)cc2)c1=O [Compound 28] |  |  |  |  | Test D disease control rating (Phytophthora infestans; [3]): 0%; Test G disease control rating [1, 3]: 27%; Test A disease control rating (Phakopsora pachyrhizi): 0%; Test E disease control rating (Zymoseptoria tritici; [3]): 0%; Test F disease control rating [2, 3]: 97%; Test C disease control rating (Botrytis cinerea; [3]): 0%
23 | COc1ccc(NC(=O)c2c(Cl)cnn(C)c2=O)cc1 [Compound 30] |  |  |  |  | Test D disease control rating (Phytophthora infestans; [3]): 0%; Test G disease control rating [1, 3]: 0%; Test A disease control rating (Phakopsora pachyrhizi): 60%; Test E disease control rating (Zymoseptoria tritici; [3]): 0%; Test F disease control rating [2, 3]: 96%; Test C disease control rating (Botrytis cinerea; [3]): 0%
24 | Cc1ccc(NC(=O)c2c(Cl)cnn(C)c2=O)cc1 [Compound 31] |  |  |  |  | Test D disease control rating (Phytophthora infestans; [3]): 0%; Test G disease control rating [1, 3]: 0%; Test A disease control rating (Phakopsora pachyrhizi): 65%; Test E disease control rating (Zymoseptoria tritici; [3]): 0%; Test F disease control rating [2, 3]: 95%; Test C disease control rating (Botrytis cinerea; [3]): 92%
25 | Cn1ncc(O)c(C(=O)Nc2ccc(OC(F)(F)F)cc2F)c1=O [Compound 48] |  |  |  |  | Test D disease control rating (Phytophthora infestans; [3]): 97%; Test G disease control rating [1, 3]: 97%; Test E disease control rating (Zymoseptoria tritici; [3]): 96%; Test F disease control rating [2, 3]: 99%; Test C disease control rating (Botrytis cinerea; [3]): 62%
26 | Cn1ncc(OS(C)(=O)=O)c(C(=O)Nc2ccc(C(F)(F)F)nc2)c1=O [Compound 94] |  |  |  |  | Test D disease control rating (Phytophthora infestans; [3]): 0%; Test G disease control rating [1, 3]: 52%; Test A disease control rating (Phakopsora pachyrhizi): 77%; Test F disease control rating [2, 3]: 99%; Test C disease control rating (Botrytis cinerea; [3]): 0%
27 | Cn1ncc(OS(C)(=O)=O)c(C(=O)Nc2ncc(Cl)cn2)c1=O [Compound 95] |  |  |  |  | Test D disease control rating (Phytophthora infestans; [3]): 0%; Test G disease control rating [1, 3]: 0%; Test A disease control rating (Phakopsora pachyrhizi): 73%; Test F disease control rating [2, 3]: 68%; Test C disease control rating (Botrytis cinerea; [3]): 0%
28 | Cn1ncc(OS(=O)(=O)c2ccccc2)c(C(=O)Nc2ccc(OC(F)(F)F)cc2)c1=O [Compound 107] |  |  |  |  | Test D disease control rating (Phytophthora infestans; [3]): 96%; Test G disease control rating [1, 3]: 98%; Test E disease control rating (Zymoseptoria tritici; [3]): 71%; Test F disease control rating [2, 3]: 100%; Test C disease control rating (Botrytis cinerea; [3]): 0%
